Source: US8198273B2, “Compounds and methods for kinase modulation, and indications therefor” (Plexxikon Inc., priority 2009, dated 2012)

How the values were obtained:
Colo205 xenograft = Colo205 xenograft mouse model, tumor growth inhibition; type: in vivo; conditions: COLO 205, 336 h, female nu/nu mice, 10 mg/kg daily for fourteen days
Description: Tumor growth is monitored to approximately 100 mg size, and mice are distributed to treatment groups such that the mean tumor burden within a group is within 10% of the overall mean tumor burden. […] Mice are observed daily, with tumor burden and body weights measured twice a week. Animals with tumor burden above 1500-2000 mg and any animals in moribund condition are euthanized. The average tumor growth of vehicle control group mice is compared to the average tumor growth of the test compound mice. Percent tumor growth inhibition is calculated as 100×[(tumor growth control-tumor growth test compound)/tumor growth control].

[1] = system: SKMEL3 melanoma cells (B-Raf V600E); experiment: SKMEL3 cell growth inhibition (ATPlite); type: cell-based; conditions: Homo sapiens, SK-MEL3, 72 h; SKMEL3, 3 days incubation
Description: (§1) Compounds are assessed in a variety of cell based assays. For example human cell lines with B-Raf V600E mutation (A375 melanoma, SKMEL3 melanoma, and COL0205 colon adenocarcinoma), as well as tumorigenic cell lines with wild-type B-RAF (SW620 colon adenocarcinoma) or with Ras mutations (SKMEL2 melanoma and IPC298 melanoma). Similar assays may be used to assess additional tumorigenic cell lines with Ras mutations, including, but not limited to, M202, M207, M243, M244, M296, S117, HCT116, HCT15, DLD1, MiaPaCa, A549, NCI-H23, NCI-H460, HOP62, MDA-MB231, Hs-578T, HL60, MOLT-4, and CCRF-CEM.
(§2) On day 1, cells are counted, then centrifuged in a conical tube for 5 minutes at 1000 rpm. The supernatant is removed and cells are re-suspended as follows: • SW620 (ATCC catalog #CCL-27): resuspend in Leibovitz's L-15 medium, 2 mM L-glutamine, 10% fetal bovine serum to 6×10^4 cells/mL. • A375 (ATCC catalog #CRL-1619): resuspend in Dulbecco's modified Eagle's medium, 4 mM L-glutamine, 4.5 g/L D-glucose, 10% fetal bovine serum to 6×10^4 cells/mL. • COL0205 (ATCC catalog #CCL-222): resuspend in RPMI 1640, 2 mM L-glutamine, 1.5 g/L sodium bicarbonate, 4.5 g/L D-glucose, 10 mM HEPES, 1.0 mM sodium pyruvate, 10% fetal bovine serum to 6×10^4 cells/mL. • SKMEL2 (ATCC catalog #HTB-68): resuspend in Minimum Eagle essential medium, 2 mM L-glutamine, 1.5 g/L sodium bicarbonate, 0.1 mM non-essential amino acids, 1.0 mM sodium pyruvate, 10% fetal bovine serum to 6×10^4 cells/mL. • SKMEL3 (ATCC catalog #HTB-69): resuspend in McCoy's 5A medium, 1.5 mM L-glutamine, 15% fetal bovine serum to 6×10^4 cells/mL. • IPC298 (DSMZ catalog #ACC 251): resuspend in RPMI 1640, 2 mM L-glutamine, 10% fetal bovine serum to 6×10^4 cells/mL.
(§3) The cells are plated, 50 μL in each well of a 96-well dish (Corning 3610) and incubated at 37° C. in 5% CO2 overnight, cells plated to a final concentration of cells as follows:
SKMEL3: 3,000 cells per well.
On day 2, compound at a maximum concentration of 5 mM is serially diluted 1:3 for a total of 8 point titration with DMSO as a control. A 1 μL aliquot of each dilution point and control is added to 249 μL growth media and 50 μL is added to a well containing cells, providing 10 μM compound at the maximum concentration point. The cells are incubated for 3 days at 37° C. in 5% CO2.
(§4) On day 5, ATPlite 1 step Luminescence Assay System (Perkin Elmer #6016739) is brought to room temperature along with the cell cultures. ATPlite is added 25 μL to each well, shake for 2 minutes, and the cells are incubated at room temperature for 10 minutes, then luminescence is read on Safire reader. The measured luminescence correlates directly with cell number, such that the reading as a function of compound concentration is used to determine the IC50 value.
It is understood that the results of these assays may vary as assay conditions are varied. Inhibition levels determined under the conditions described herein represent a relative activity for the compounds tested under the specific conditions employed. The cell based assays are likely to show variability due to the complexity of the system and the sensitivity thereof to any changes in the assay conditions. […] Results for compounds that are tested and show substantially no inhibition below the highest tested concentration are represented as “-” in the tables below. In some instances, the compounds were not tested in all of the assays, or assay results were not valid, as indicated by NA in the tables below.

[2] = system: IPC298 melanoma cells (Ras mutation); experiment: IPC298 cell growth inhibition (ATPlite); type: cell-based; conditions: Homo sapiens, IPC-298, 72 h; IPC298, 3 days incubation
Description: as §1, §2, §3
On day 2, compound at a maximum concentration of 5 mM is serially diluted 1:3 for a total of 8 point titration with DMSO as a control. […]
as §4
It is understood that the results of these assays may vary as assay conditions are varied. Inhibition levels determined under the conditions described herein represent a relative activity for the compounds tested under the specific conditions employed. […]

Row | SMILES | inhibition in vivo at 10 mg/kg (Colo205 xenograft) [%] | IC50 [1] [nM] | IC50 [2] [nM]
1 | CCCS(=O)(=O)Nc1ccc(F)c(C(=O)c2c[nH]c3ncc(-c4cnc(C)nc4)cc23)c1F [P-2211, Propane-1-sulfonic acid {2,4-difluoro-3-[5-(2-methyl-pyrimidin-5-yl)-1H-pyrrolo[2,3-b]pyridine-3-carbonyl]-phenyl}-amide] | 0 | – | –
2 | Cc1cnc2[nH]cc(C(=O)c3c(F)ccc(NS(=O)(=O)c4cccnc4)c3F)c2c1 [P-2069, Pyridine-3-sulfonic acid [2,4-difluoro-3-(5-methyl-1H-pyrrolo[2,3-b]pyridine-3-carbonyl)-phenyl]-amide] | 29 | – | –
3 | COc1ncc(-c2cnc3[nH]cc(C(=O)c4c(F)ccc(NS(=O)(=O)c5cc(F)ccc5F)c4F)c3c2)cn1 [P-2042, N-{2,4-Difluoro-3-[5-(2-methoxy-pyrimidin-5-yl)-1H-pyrrolo[2,3-b]pyridine-3-carbonyl]-phenyl}-2,5-difluoro-benzenesulfonamide] | – | < 1000 | < 1000
4 | CCCS(=O)(=O)Nc1ccc(F)c(C(=O)c2c[nH]c3ncc(C#CCOC)cc23)c1F [P-2239, Propane-1-sulfonic acid {2,4-difluoro-3-[5-(3-methoxy-prop-1-ynyl)-1H-pyrrolo[2,3-b]pyridine-3-carbonyl]-phenyl}-amide] | 4 | – | –
5 | COc1ccnc2[nH]cc(C(=O)c3c(F)ccc(NS(=O)(=O)c4ccccc4F)c3F)c12 [P-2021, N-[2,4-Difluoro-3-(4-methoxy-1H-pyrrolo[2,3-b]pyridine-3-carbonyl)-phenyl]-2-fluoro-benzenesulfonamide] | 35 | – | –
6 | COc1ncc(-c2cnc3[nH]cc(C(=O)c4c(F)ccc(NS(=O)(=O)c5cccc(F)c5)c4F)c3c2)cn1 [P-2045, N-{2,4-Difluoro-3-[5-(2-methoxy-pyrimidin-5-yl)-1H-pyrrolo[2,3-b]pyridine-3-carbonyl]-phenyl}-3-fluoro-benzenesulfonamide] | – | < 5000 | –
7 | CCCS(=O)(=O)Nc1ccc(F)c(C(=O)c2c[nH]c3ncc(-c4cnc(N5CCCC5)nc4)cc23)c1F [P-2219, Propane-1-sulfonic acid {2,4-difluoro-3-[5-(2-pyrrolidin-1-yl-pyrimidin-5-yl)-1H-pyrrolo[2,3-b]pyridine-3-carbonyl]-phenyl}-amide] | – | < 5000 | –
8 | COc1ncc(-c2cnc3[nH]cc(C(=O)c4c(F)ccc(NS(=O)(=O)c5ccccc5F)c4F)c3c2)cn1 [P-2041, N-{2,4-Difluoro-3-[5-(2-methoxy-pyrimidin-5-yl)-1H-pyrrolo[2,3-b]pyridine-3-carbonyl]-phenyl}-2-fluoro-benzenesulfonamide] | – | < 1000 | < 1000
9 | CCCS(=O)(=O)Nc1ccc(F)c(C(=O)c2c[nH]c3ncc(-c4cnc(SC)nc4)cc23)c1F [P-2189, Propane-1-sulfonic acid {2,4-difluoro-3-[5-(2-methylsulfanyl-pyrimidin-5-yl)-1H-pyrrolo[2,3-b]pyridine-3-carbonyl]-phenyl}-amide] | – | – | < 10000
10 | C#Cc1cnc2[nH]cc(C(=O)c3c(F)ccc(NS(=O)(=O)CCC)c3F)c2c1 [P-2260, Propane-1-sulfonic acid [3-(5-ethynyl-1H-pyrrolo[2,3-b]pyridine-3-carbonyl)-2,4-difluoro-phenyl]-amide] | 79 | – | –
11 | N#Cc1cnc2[nH]cc(C(=O)c3c(F)ccc(NS(=O)(=O)c4ccccc4)c3F)c2c1 [P-2046, N-[3-(5-Cyano-1H-pyrrolo[2,3-b]pyridine-3-carbonyl)-2,4-difluoro-phenyl]-benzenesulfonamide] | 70 | – | –
12 | N#Cc1cnc2[nH]cc(C(=O)c3cccc(NS(=O)(=O)c4ccccc4)c3F)c2c1 [P-2056, N-[3-(5-Cyano-1H-pyrrolo[2,3-b]pyridine-3-carbonyl)-2-fluoro-phenyl]-benzenesulfonamide] | 66 | – | –
13 | CCCS(=O)(=O)Nc1ccc(F)c(C(=O)c2c[nH]c3ncc(-c4ccc(OCCN5CCOCC5)nc4)cc23)c1F [P-2232, Propane-1-sulfonic acid (2,4-difluoro-3-{5-[6-(2-morpholin-4-yl-ethoxy)-pyridin-3-yl]-1H-pyrrolo[2,3-b]pyridine-3-carbonyl}-phenyl)-amide] | 54 | – | –
14 | CCCS(=O)(=O)Nc1ccc(F)c(C(=O)c2c[nH]c3ncc(-c4ccc(OCCCN(C)C)nc4)cc23)c1F [P-2178, Propane-1-sulfonic acid (3-{5-[6-(3-dimethylamino-propoxy)-pyridin-3-yl]-1H-pyrrolo[2,3-b]pyridine-3-carbonyl}-2,4-difluoro-phenyl)-amide] | 0 | – | –
15 | Cc1cnc2[nH]cc(C(=O)c3c(F)ccc(NS(=O)(=O)c4cc(F)ccc4F)c3F)c2c1 [P-2015, N-[2,4-Difluoro-3-(5-methyl-1H-pyrrolo[2,3-b]pyridine-3-carbonyl)-phenyl]-2,5-difluoro-benzenesulfonamide] | 67 | – | –
16 | CCCS(=O)(=O)Nc1ccc(F)c(C(=O)c2c[nH]c3ncc(-c4cnc(N(C)C)nc4)cc23)c1F [P-2196, Propane-1-sulfonic acid {3-[5-(2-dimethylamino-pyrimidin-5-yl)-1H-pyrrolo[2,3-b]pyridine-3-carbonyl]-2,4-difluoro-phenyl}-amide] | 71 | < 1000 | < 10000
17 | CCCS(=O)(=O)Nc1ccc(F)c(C(=O)c2c[nH]c3ncc(-c4cncnc4)cc23)c1F [P-2162, Propane-1-sulfonic acid [2,4-difluoro-3-(5-pyrimidin-5-yl-1H-pyrrolo[2,3-b]pyridine-3-carbonyl)-phenyl]-amide] | 17 | – | –
18 | N#Cc1cnc2[nH]cc(C(=O)c3c(F)ccc(NS(=O)(=O)c4ccccc4F)c3F)c2c1 [P-2011, N-[3-(5-Cyano-1H-pyrrolo[2,3-b]pyridine-3-carbonyl)-2,4-difluoro-phenyl]-2-fluoro-benzenesulfonamide] | 72 | – | –
